Test results published in article PMC12430169, “Notoginsenoside R1, a Metabolite from Panax notoginseng, Prevents Paclitaxel-Induced Peripheral Neuropathic Pain in Mice” (Molecules, 2025).

Target: T1, human recombinant monoacylglycerol lipase (MAGL) (Homo sapiens, UniProt Q99685)
T1 construct: gene MGLL
T1 sequence (Q99685 1-303): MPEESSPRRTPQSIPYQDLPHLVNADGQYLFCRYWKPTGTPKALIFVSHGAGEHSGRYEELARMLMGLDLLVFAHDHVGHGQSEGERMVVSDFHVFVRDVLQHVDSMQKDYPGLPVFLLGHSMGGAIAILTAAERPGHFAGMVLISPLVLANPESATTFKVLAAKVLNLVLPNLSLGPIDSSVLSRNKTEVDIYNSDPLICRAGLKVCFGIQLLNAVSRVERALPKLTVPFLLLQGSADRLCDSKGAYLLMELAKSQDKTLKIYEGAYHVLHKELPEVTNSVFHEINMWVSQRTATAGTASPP
Test: colorimetric MAGL inhibitor screening kit (Cayman), 4-nitrophenyl acetate hydrolysis at […] nm; […] inhibition at […] at […] min, […] at […] min; inhibition falls with concentration
Type: biochemical

CC(C)=CCC[C@](C)(O[C@@H]1O[C@H](CO)[C@@H](O)[C@H](O)[C@H]1O)[C@H]1CC[C@]2(C)[C@@H]1[C@H](O)C[C@@H]1[C@@]3(C)CC[C@H](O)C(C)(C)[C@@H]3[C@@H](O[C@@H]3O[C@H](CO)[C@@H](O)[C@H](O)[C@H]3O[C@@H]3OC[C@@H](O)[C@H](O)[C@H]3O)C[C@]12C [NGR1, Notoginsenoside R1]
inhibition at 1 µM: 41%
